# ChEMBL document CHEMBL1156090, “Design and synthesis of cell potent BACE-1 inhibitors: structure-activity relationship of P1' substituents” (Bioorg Med Chem Lett, 2009)
# Key:
# HEK293 = test: […] HEK293 cells expressing swedish-mutant APP FAD isoform; type: functional, Homo sapiens; conditions: read-out: ED50 (the source's name)
# Beta-secretase 1 = Beta-secretase 1 (Homo sapiens, UniProt P56817)
# Description: Inhibition of recombinant BACE1 expressed in Escherichia coli after 3 hrs by oregon green based fluorescence polarization assay
# Cathepsin D = Cathepsin D (Homo sapiens, UniProt P07339)
# Description: Inhibition of cathepsin D assessed as reduction in polarization after 110 mins by oregon green based fluorescence polarization assay
# [1] = Apparent permeability from apical side to basolateral side in MDCK2 cells at 5 uM after 120 mins by LC/MS/MS; type: ADME, cell-based, Canis lupus familiaris, MDCK-II; conditions: dog, MDCK
# Chain of Beta-secretase 1 (P56817 whole entry): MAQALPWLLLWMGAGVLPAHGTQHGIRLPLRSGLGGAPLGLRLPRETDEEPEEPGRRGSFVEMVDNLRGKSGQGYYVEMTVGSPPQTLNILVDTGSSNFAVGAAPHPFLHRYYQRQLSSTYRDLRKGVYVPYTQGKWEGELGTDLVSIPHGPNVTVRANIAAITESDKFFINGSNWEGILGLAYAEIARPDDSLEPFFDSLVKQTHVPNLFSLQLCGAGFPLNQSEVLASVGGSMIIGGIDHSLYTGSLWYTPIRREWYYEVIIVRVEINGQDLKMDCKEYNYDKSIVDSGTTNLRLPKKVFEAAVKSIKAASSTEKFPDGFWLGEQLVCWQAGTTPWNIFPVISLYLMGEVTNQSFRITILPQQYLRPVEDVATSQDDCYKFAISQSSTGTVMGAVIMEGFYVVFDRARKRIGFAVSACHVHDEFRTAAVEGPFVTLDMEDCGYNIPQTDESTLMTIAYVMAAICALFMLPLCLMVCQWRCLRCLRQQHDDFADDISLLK
# Chain of Cathepsin D (P07339 65-162 limits assumed): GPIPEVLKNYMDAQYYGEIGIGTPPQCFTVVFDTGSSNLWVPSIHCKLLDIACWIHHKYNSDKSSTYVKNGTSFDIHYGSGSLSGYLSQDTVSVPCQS
# Chain of Cathepsin D (P07339 169-412 limits assumed): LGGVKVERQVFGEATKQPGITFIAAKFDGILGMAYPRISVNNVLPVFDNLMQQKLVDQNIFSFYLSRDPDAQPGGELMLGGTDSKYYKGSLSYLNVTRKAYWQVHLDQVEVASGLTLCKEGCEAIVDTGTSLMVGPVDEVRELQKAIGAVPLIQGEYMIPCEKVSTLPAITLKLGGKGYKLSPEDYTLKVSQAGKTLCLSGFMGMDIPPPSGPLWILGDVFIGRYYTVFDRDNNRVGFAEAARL
SMILES,"EC50 (HEK293; Homo sapiens, HEK293)",IC50 (Beta-secretase 1),IC50 (Cathepsin D),"Papp A→B at 2 h, 5 µM [1]",EC50 (HEK293)
CC(=O)N[C@@H](Cc1cc(F)cc(F)c1)[C@H](O)CN[C@@]1(c2cccc(C(C)(C)C)c2)CC[C@H](N(O)C(C)=O)NC1,1.3 nM,240 nM,2300 nM,–,–
CC(=O)N[C@@H](Cc1cc(F)cc(F)c1)[C@H](O)CN[C@@]1(c2cccc(C(C)(C)C)c2)CC[C@H](Nc2cccnc2)NC1,–,500 nM,9800 nM,–,–
CC(=O)N[C@@H](Cc1cc(F)cc(F)c1)[C@H](O)CN[C@@]1(c2cccc(C(C)(C)C)c2)CCC(NO)=NC1,0.89 nM,8.8 nM,430 nM,–,–
CC(=O)N[C@@H](Cc1cc(F)cc(F)c1)[C@H](O)CNC1(c2cccc(C(C)(C)C)c2)CCNCC1,710 nM,4700 nM,> 10000 nM,–,–
CC(=O)N[C@@H](Cc1cc(F)cc(F)c1)[C@H](O)CNC1(c2cccc(C(C)(C)C)c2)CCC(=O)CC1,5.6 nM,120 nM,450 nM,–,–
CC(=O)N[C@@H](Cc1cc(F)cc(F)c1)[C@H](O)CN[C@@]1(c2cccc(C(C)(C)C)c2)CC[C@H](S(C)(=O)=O)NC1,100 nM,210 nM,2300 nM,–,–
CC(=O)N[C@@H](Cc1cc(F)cc(F)c1)[C@H](O)CN[C@]1(c2cccc(C(C)(C)C)c2)CC[C@H](O)CC1,870 nM,9200 nM,> 10000 nM,–,–
CS[C@H]1CC[C@@](NC[C@@H](O)[C@H](Cc2cc(F)cc(F)c2)NC(C)=O)(c2cccc(C(C)(C)C)c2)CN1,7.5 nM,24 nM,84 nM,–,–
CC(=O)N[C@@H](Cc1cc(F)cc(F)c1)[C@H](O)CN[C@]1(c2cccc(C(C)(C)C)c2)CC[C@@H](CO)CC1,31 nM,38 nM,330 nM,–,–
CC(=O)N[C@@H](Cc1cc(F)cc(F)c1)[C@H](O)CN[C@]1(c2cccc(C(C)(C)C)c2)CC[C@@H](O)CC1,11 nM,24 nM,1400 nM,0.3 ×10⁻⁶ cm/s,–
CC(=O)N[C@@H](Cc1cc(F)cc(F)c1)[C@H](O)CN[C@@]1(c2cccc(C(C)(C)C)c2)CC[C@H](C(F)(F)F)NC1,54 nM,33 nM,28 nM,–,–
CON[C@H]1CC[C@@](NC[C@@H](O)[C@H](Cc2cc(F)cc(F)c2)NC(C)=O)(c2cccc(C(C)(C)C)c2)CN1,7.6 nM,100 nM,530 nM,–,–
CO[C@H]1CC[C@@](NC[C@@H](O)[C@H](Cc2cc(F)cc(F)c2)NC(C)=O)(c2cccc(C(C)(C)C)c2)CN1,13 nM,140 nM,130 nM,–,–
COC(=O)N[C@H]1CC[C@@](NC[C@@H](O)[C@H](Cc2cc(F)cc(F)c2)NC(C)=O)(c2cccc(C(C)(C)C)c2)CN1,16 nM,240 nM,2000 nM,–,–
CC(=O)N[C@@H](Cc1cc(F)cc(F)c1)[C@H](O)CN[C@@]1(c2cccc(C(C)(C)C)c2)CC[C@H](Nc2ccccn2)NC1,21 nM,73 nM,4400 nM,–,–
CC(=O)N[C@@H](Cc1cc(F)cc(F)c1)[C@H](O)CN[C@@]1(c2cccc(C(C)(C)C)c2)CC[C@H](NC=O)NC1,2.4 nM,210 nM,> 10000 nM,–,–
CC(=O)N[C@@H](Cc1cc(F)cc(F)c1)[C@H](O)CN[C@@]1(c2cccc(C(C)(C)C)c2)CC[C@H](C#N)NC1,37 nM,380 nM,640 nM,–,–
CC(=O)N[C@@H](Cc1cc(F)cc(F)c1)[C@H](O)CN[C@@]1(c2cccc(C(C)(C)C)c2)CC[C@H](NO)NC1,0.96 nM,19 nM,3900 nM,–,–
CC(=O)N[C@@H](Cc1cc(F)cc(F)c1)[C@H](O)CN[C@]1(c2cccc(C(C)(C)C)c2)CC[C@@H](CCO)CC1,> 1000 nM,> 10000 nM,> 10000 nM,–,–

SMILES,"EC50 (HEK293; Homo sapiens, HEK293)",IC50 (Beta-secretase 1),IC50 (Cathepsin D),"Papp A→B at 2 h, 5 µM [1]",EC50 (HEK293)
CC(=O)N[C@@H](Cc1cc(F)cc(F)c1)[C@H](O)CN[C@@]1(c2cccc(C(C)(C)C)c2)CC[C@H](NS(C)(=O)=O)NC1,5.9 nM,400 nM,7200 nM,–,–
CC(=O)N[C@H]1CC[C@@](NC[C@@H](O)[C@H](Cc2cc(F)cc(F)c2)NC(C)=O)(c2cccc(C(C)(C)C)c2)CN1,48 nM,350 nM,> 10000 nM,–,–
CC(=O)N[C@@H](Cc1cc(F)cc(F)c1)[C@H](O)CNC1(c2cccc(C(C)(C)C)c2)CCN(C(N)=O)CC1,> 1000 nM,380 nM,4300 nM,–,–
CC(=O)N[C@@H](Cc1cc(F)cc(F)c1)[C@H](O)CNC1(c2cccc(C(C)(C)C)c2)CCc2nc(C)ncc2C1 (mixture of isomers),15 nM,93 nM,910 nM,–,–
CC(=O)N[C@@H](Cc1cc(F)cc(F)c1)[C@H](O)CNC1(c2cccc(C(C)(C)C)c2)CCCNC1 (mixture of isomers),> 1000 nM,> 10000 nM,2330 nM,–,–
CC(=O)N[C@@H](Cc1cc(F)cc(F)c1)[C@H](O)CNC1(c2cccc(C(C)(C)C)c2)CCC(=O)NC1 (mixture of isomers),76 nM,47 nM,180 nM,–,–
CC(=O)N[C@@H](Cc1cc(F)cc(F)c1)[C@H](O)CNC1(c2cccc(C(C)(C)C)c2)CCCN(C(=O)OCc2ccccc2)C1 (mixture of isomers),780 nM,860 nM,3.3 nM,–,–
CC(=O)N[C@@H](Cc1cc(F)cc(F)c1)[C@H](O)CNC1(c2cccc(C(C)(C)C)c2)CCCN(C(N)=O)C1 (mixture of isomers),210 nM,330 nM,90 nM,–,–
CC(=O)N[C@@H](Cc1cc(F)cc(F)c1)[C@H](O)CNC1(c2cccc(C(C)(C)C)c2)CCOCC1 (mixture of isomers),–,61 nM,230 nM,8.1 ×10⁻⁶ cm/s,–
CC(=O)N[C@@H](Cc1cc(F)cc(F)c1)[C@H](O)CNC1(c2cccc(C(C)(C)C)c2)CCCC1 (mixture of isomers),> 100 nM,220 nM,130 nM,–,–
CC(=O)N[C@@H](Cc1cc(F)cc(F)c1)[C@H](O)CNC1(c2cccc(-n3cccn3)c2)CCOC1 (mixture of isomers),> 1000 nM,2400 nM,4900 nM,–,–
CC(=O)N[C@@H](Cc1cc(F)cc(F)c1)[C@H](O)CNC1(c2cccc(C(C)(C)C)c2)CCCN(O)C1 (mixture of isomers),45 nM,400 nM,670 nM,–,–
CC(=O)N[C@@H](Cc1cc(F)cc(F)c1)[C@H](O)CNC1(c2cccc(-n3cccn3)c2)CCCOC1 (mixture of isomers),91 nM,270 nM,170 nM,–,–
CC(=O)N[C@@H](Cc1cc(F)cc(F)c1)[C@H](O)CNC1(c2cccc(C(C)(C)C)c2)CCCN(C(C)=O)C1 (mixture of isomers),560 nM,1300 nM,410 nM,–,–
CC(=O)N[C@@H](Cc1cc(F)cc(F)c1)[C@H](O)CNC1(c2cccc(C(C)(C)C)c2)CCc2n[nH]cc2C1 (mixture of isomers),2.1 nM,–,300 nM,1.6 ×10⁻⁶ cm/s,–
CC(=O)N[C@@H](Cc1cc(F)cc(F)c1)[C@H](O)CNC1(c2cccc(C(C)(C)C)c2)CCc2nc(N)ncc2C1 (mixture of isomers),1.8 nM,14 nM,210 nM,–,–
"CC(=O)N[C@@H](Cc1cc(F)cc(F)c1)[C@H](O)CNC1(c2cccc(C(C)(C)C)c2)CCNC(=O)C1 (single isomer, unassigned)",21 nM,18 nM,330 nM,–,–
CC(=O)N[C@@H](Cc1cc(F)cc(F)c1)[C@H](O)CNC1(c2cccc(C(C)(C)C)c2)CCNC(=O)C1 (stereo in doubt; 16),–,19 nM,1100 nM,–,23 nM
